For test [1], the target named is T1, INDY (Homo sapiens, UniProt Q86YT5). In words: 14C-citrate uptake in HEK293 cells overexpressing recombinant human INDY (NaCT). The format is cell-based. Details: expressed in transfected cells; host or cells: HEK293. The procedure, abridged:
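HEK293 cells overexpressing human NaCT, 50,000/well, preincubated 5-30 min at 37 °C with compound in pH 6.5 Na+ buffer. 14C-citrate ([…]) uptake then ran 20-90 min at 37 °C, followed by ice-cold washes, NaOH lysis and scintillation counting. 10 mM citrate served as positive control.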

Test [2] deals with T1, INDY. In words: 14C-citrate uptake in HepG2 cells endogenously expressing INDY (NaCT). It counts as cell-based. The conditions noted are these: endogenous INDY. Here is the method: The compound was obtained by screening of a library containing more than 50,000 lead-like compounds and fragments. The library was tested using a functional citrate uptake assay with HEK293 cells overexpressing recombinant human INDY. The following hit confirmation was conducted in the same assay system. To confirm the activity of selected compounds on the target INDY another cell assay was conducted. In this assay system citrate uptake was measured using HepG2 cells which endogenously express INDY. Furthermore selectivity of selected compounds was tested for two other transporters in different assay systems. The first transporter was the glutamate transporter GLT-1 tested in a glutamate uptake assays using HEK293 cells overexpressing recombinant human GLT-1. The second transporter was the glucose transporter GLUT1 tested in a glucose uptake assay using Huh-7 cells which endogenously express GLUT1. Compounds were considered to be selective with an at least 5-fold higher activity for INDY than for the other two transporters.
Cells were maintained in cell medium using cell culture grade flasks (CellSTACK Corning, 500 cm2 dishes or T175 depending on cell number). The selection antibiotic and G418 (800 μg/ml) was added during cultivation but not for seeding into assay plates. For splitting, cells were washed with PBS (w/o Ca2+, Mg2+, phenol red) and detached with Trypsin/EDTA. Throughout cultivation cells were kept sub-confluent. Detached cells (50,000 cells/well) were seeded in 96-well plates (white, clear bottom from Corning #655098) and incubated over night before usage in the assay. The following media were used. For HEK293 cells expressing INDY MEM (PAA)+10% FCS+1×P/S+2 mM L-Gln; for HEK293 cells expressing GLT-1 DMEM (Gibco)+10% FCS+400 µg/ml G418; for Huh7 cells DMEM (Gibco)+10% FCS+2 mM L-Gin (+1×P/S); for HepG2 cells MEM (PAA, Cat # E15-024)+10% FCS+2 mM L-Gin+1×NEAA+1 mM Na-Pyruvat
The following assay buffers for the particular uptake reaction were used. Citrate uptake buffer: 120 mM NaCl, 5.4 mM KCl, 0.8 mM MgSO4, 5 mM glucose, 1.8 mM CaCl2, 25 mM Hepes, 25 mM MES, pH 6.5. Glutamate uptake buffer: HBSS, 1 mM CaCl2, 1 mM MgCl2, 20 mM Hepes pH 7.4. Glucose uptake buffer: 25 mM Hepes+25 mM MES pH 7.4, 120 mM NaCl, 5.4 mM KCl, 1.8 mM CaCl2, 0.8 mM MgSO4.
INDY mediated citrate uptake was also determined in HepG2 cells. To determine the uptake of ^14C labelled citrate into cells, HepG2 cells endogenously expressing human NaCT were used. (Gopal et al. 2007 Am J Physiol Gastrointest Liver Physiol 292).
HepG2 cells were seeded into white clear-bottom 96-well plates (50,000/well) coated with collagen and incubated at 37° C. for 16-24 hours. After that plates were washed once with assay buffer using automated washing/LS 405 Selectors, BioTek ending with a buffer volume of 40 μl. Then 5 μl of compound solution in assay buffer was added and incubated for 5 min at 37° C. in cell incubator, HERA cell Heraeus. Afterwards 10 μl of substrate 14C-citrate (10 nM) were added and incubated for another 90 min at 37° C. in cell incubator, HERAcell. Then plates were washed 3× with 200 μl buffer and […] cell lysis induced by adding 50 μl ice-cold NaOH (100 mM). Plates were incubated for 25 min at RT on a plate shaker and afterwards 200 μl scintillation fluid was added and incubated for 15 min on a plate shaker at RT and for another 15 min without shaking at RT. Plates were measured using a TopCount system. As a positive control 5 mM citrate was applied. It is possible to use this assay also in analogy in a 384-well plate format.

T1 sequence (Q86YT5 whole entry): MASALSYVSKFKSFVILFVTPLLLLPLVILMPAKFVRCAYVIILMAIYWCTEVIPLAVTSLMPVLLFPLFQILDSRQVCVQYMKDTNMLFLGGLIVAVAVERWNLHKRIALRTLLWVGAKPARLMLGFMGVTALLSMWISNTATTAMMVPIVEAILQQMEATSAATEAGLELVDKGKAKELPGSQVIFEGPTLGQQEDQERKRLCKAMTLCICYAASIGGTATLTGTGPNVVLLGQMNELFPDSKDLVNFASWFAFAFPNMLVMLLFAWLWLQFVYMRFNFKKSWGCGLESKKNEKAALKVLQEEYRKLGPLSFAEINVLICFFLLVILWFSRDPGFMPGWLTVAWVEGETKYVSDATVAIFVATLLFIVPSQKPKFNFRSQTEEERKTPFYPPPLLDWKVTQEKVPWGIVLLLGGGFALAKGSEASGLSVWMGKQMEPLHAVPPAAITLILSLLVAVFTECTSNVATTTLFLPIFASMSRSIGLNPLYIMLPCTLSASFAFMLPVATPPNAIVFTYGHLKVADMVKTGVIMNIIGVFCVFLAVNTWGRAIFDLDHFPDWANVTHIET

In general, IC50 refers to the concentration that inhibits the measured activity by half. Consider `COC(=O)c1cccc(CNC(=O)C2CCN(S(=O)(=O)c3cc(Cl)cc(Cl)c3)CC2)c1` [Example 118, methyl 3-({[1-(3,5-dichlorobenzenesulfonyl)piperidin-4-yl]formamido}methyl)benzoate], for which the IC50 on INDY [1] amounted to 5.7 µM; against INDY [2] it was 4 µM.
`CCc1ccc(S(=O)(=O)N2CCC(C(=O)NCc3ccccc3F)CC2)cc1` [Example 34, 1-(4-ethylbenzenesulfonyl)-N-[(2-fluorophenyl)methyl]piperidine-4-carboxamide]: the IC50 at INDY [1] was 1 µM; against INDY [2] it was 4.5 µM.
Turning to `O=C(NCc1ccccn1)C1CCN(S(=O)(=O)c2ccc(C3CCCC3)cc2)CC1` [Example 129, 1-(4-cyclopentylbenzenesulfonyl)-N-[(pyridin-2-yl)methyl]piperidine-4-carboxamide], the IC50 on INDY [1] is 1.6 µM; on INDY [2], 7.4 µM.
Turning to `O=C(NCc1ccccc1F)C1CCN(S(=O)(=O)c2ccc(Cl)cc2)CC1` [Example 27, 1-(4-chlorobenzenesulfonyl)-N-[(2-fluorophenyl)methyl]piperidine-4-carboxamide], the results for the IC50 at INDY [1] and on INDY [2] were 3 µM and 2.4 µM, respectively.
In the case of `O=C(NCc1ccccc1CO)C1CCN(S(=O)(=O)/C=C/c2ccccc2)CC1` [Example 69, N-{[2-(hydroxymethyl)phenyl]methyl}-1-[(E)-2-phenylethenesulfonyl]pipendine-4-carboxamide], the results for the IC50 at INDY [1] and at INDY [2] were 11.7 µM and 4.5 µM, respectively.
In the case of `CC(C)Oc1ccc(S(=O)(=O)N2CCC(C(=O)NCc3ccccc3F)CC2)cc1` [Example 24, N-[(2-fluorophenyl)methyl]-1-[4-(propan-2-yloxy)benzenesulfonyl]piperidine-4-carboxamide], the figures for the IC50 at INDY [1] and against INDY [2] were 9.3 µM and 4.2 µM, respectively.
The corresponding values for `O=C(NCc1ccccc1Br)C1CCN(S(=O)(=O)/C=C/c2ccccc2)CC1` [Example 32, N-[(2-bromophenyl)methyl]-1-[(E)-2-phenylethenesulfonyl]piperidine-4-carboxamide] are 5.1 µM and 6.7 µM.
As for `O=C(NCc1cccc(F)c1)C1CCN(S(=O)(=O)/C=C/c2ccccc2)CC1` [Example 21, N-[(3-fluorophenyl)methyl]-1-[(E)-2-phenylethenesulfonyl]piperidine-4-carboxamide], the IC50 was 7.4 µM at INDY [1] and more than 20 µM on INDY [2].
For the molecule `O=C(NCc1ccccn1)C1CN(S(=O)(=O)c2cc(Cl)cc(Cl)c2)C1` [Example 120, 1-(3,5-dichlorobenzenesulfonyl)-N-[(pyridin-2-yl)methyl]azetidine-3-carboxamide], the IC50 at INDY [1] came out at 7.5 µM; against INDY [2], 2.8 µM.
As for `O=C(NCc1ccccn1)C1CCN(S(=O)(=O)c2cc(F)cc(Cl)c2)CC1` [Example 78, 1-(3-chloro-5-fluorobenzenesulfonyl)-N-[(pyridin-2-yl)methyl]pipendine-4-carboxamide], the IC50 was determined as 4.9 µM on INDY [1] and 2.4 µM on INDY [2].
Consider `O=C(NCc1ccccc1F)C1CCN(S(=O)(=O)c2ccc(-c3ccccc3)cc2)CC1` [Example 30, 1-{[1,1′-biphenyl]-4-sulfonyl}-N-[(2-fluorophenyl)methyl]piperidine-4-carboxamide], for which the IC50 at INDY [1] and against INDY [2] was 0.8 µM in each case.
As for `COc1ccccc1S(=O)(=O)N1CCC(C(=O)NCc2ccccc2F)CC1` [Example 19, N-[(2-fluorophenyl)methyl]-1-(2-methoxybenzenesulfonyl)piperidine-4-carboxamide], the IC50 at INDY [1] stood at 5 µM; on INDY [2] it was 3.4 µM.
Regarding `O=C(NCc1ccccn1)C1CCN(S(=O)(=O)c2cc(Cl)ccc2Cl)CC1` [Example 62, 1-(2,5-dichlorobenzenesulfonyl)-N-[(pyridin-2-yl)methyl]piperidine-4-carboxamide], the IC50 on INDY [1] was 8.2 µM; on INDY [2], 4.6 µM.
For `O=C(NCc1cc(F)ccc1F)C1CCN(S(=O)(=O)/C=C/c2ccccc2)CC1` [Example 23, N-[(2,5-difluorophenyl)methyl]-1-[(E)-2-phenylethenesulfonyl]piperidine-4-carboxamide], the 50% inhibitory concentration (IC50) is 4.6 µM on INDY [1] and more than 20 µM at INDY [2].
Consider `CC(C)(C)c1ccc(S(=O)(=O)N2CC(C(=O)NCc3ccccc3F)C2)cc1` [Example 46, 1-(4-tert-butylbenzenesulfonyl)-N-[(2-fluorophenyl)methyl]azetidine-3-carboxamide], for which the IC50 on INDY [1] and at INDY [2] was 9.3 µM throughout.
Take `O=C(NCc1ccccn1)C1CCN(S(=O)(=O)c2ccc(C3CCCCC3)cc2)CC1` [Example 131, 1-(4-cyclohexylbenzenesulfonyl)-N-[(pyridin-2-yl)methyl]piperidine-4-carboxamide]: the IC50 is 6.1 µM at INDY [1] and 4.7 µM against INDY [2].
The corresponding values for `O=C(NCc1cccc(CO)c1)C1CCN(S(=O)(=O)c2cc(Cl)cc(Cl)c2)CC1` [Example 117, 1-(3,5-dichlorobenzenesulfonyl)-N-{[3-(hydroxymethyl)phenyl]methyl}piperidine-4-carboxamide] are 0.8 µM and 0.5 µM.
Regarding `CC(C)(C)c1ccc(S(=O)(=O)N2CCC(C(=O)NCc3ccccc3Cl)CC2)cc1` [Example 39, 1-(4-tert-butylbenzenesulfonyl)-N-[(2-chlorophenyl)methyl]piperidine-4-carboxamide], the half-maximal inhibitory concentration (IC50) at INDY [1] amounted to 0.2 µM; against INDY [2] it was 2.1 µM.
The corresponding values for `O=C(NCc1ccccc1F)C1CCN(S(=O)(=O)c2ccc(Cl)cc2Cl)CC1` [Example 43, 1-(2,4-dichlorobenzenesulfonyl)-N-[(2-fluorophenyl)methyl]piperidine-4-carboxamide] are 0.3 µM and 0.4 µM.
On to `O=C(NCc1ccccn1)C1CCN(S(=O)(=O)c2ccc(I)cc2)CC1` [Example 95, 1-(4-iodobenzenesulfonyl)-N-[(pyridin-2-yl)methyl]piperidine-4-carboxamide], for which the IC50 at INDY [1] was 5.5 µM; at INDY [2] it was 2.4 µM.
On to `Cc1ccc(S(=O)(=O)N2CCC(C(=O)NCc3ccccc3F)CC2)cc1` [Example 35, N-[(2-fluorophenyl)methyl]-1-(4-methylbenzenesulfonyl)piperidine-4-carboxamide], for which the IC50 came to 1.5 µM on INDY [1] and 2.9 µM on INDY [2].
Turning to `O=C(NCc1cccc(O)c1)C1CCN(S(=O)(=O)c2cc(Cl)cc(Cl)c2)CC1` [Example 114, 1-(3,5-dichlorobenzenesulfonyl)-N-[(3-hydroxyphenyl)methyl]piperidine-4-carboxamide], the values for the IC50 on INDY [1] and against INDY [2] were 0.7 µM and 0.6 µM, respectively.
`O=C(NCc1ccccn1)C1CCN(S(=O)(=O)c2cccc(C(F)(F)F)c2)CC1` [Example 75, N-[(pyridin-2-yl)methyl]-1-[3-(trifluoromethyl)benzenesulfonyl]pipendine-4-carboxamide]: the figures for the IC50 on INDY [1] and at INDY [2] were 5.7 µM and 3.3 µM, respectively.
On to `O=C(NCc1ccccc1F)C1CCN(S(=O)(=O)c2cccc(Cl)c2)CC1` [Example 59, 1-(3-chlorobenzenesulfonyl)-N-[(2-fluorophenyl)methyl]piperidine-4-carboxamide], for which the IC50 at INDY [1] was 1.1 µM; on INDY [2], 0.9 µM.

Source of the values: patent US20200087258A1, “INHIBITOR OF CITRATE TRANSPORTER AND THEIR USE IN THERAPY” (Eternygen GmbH, priority 2017, published 2020).
